In the NIST ThermoML archive (doi:10.1021/je900337a):
± gives the expanded uncertainty stated by the source.

How the values were obtained:
[1] = 323.15 K; for mass density / viscosity: 101.33 kPa, Liquid; for viscosity: Capillary tube (Ostwald / Ubbelohde) method
[2] = xn = mol fraction of the nth substance listed; settings: 323.15 K; for viscosity / mass density: 101 kPa; for viscosity: Capillary tube (Ostwald / Ubbelohde) method

CCCO [propan-1-ol]
Settings | surface tension liquid-gas [mN/m]
[1], Ring tensiometer | 21.36 ± 0.06

[1]
Settings | mass density [kg/m3] | viscosity [mPa·s]
– | 779.3 ± 0.51 | 1.115 ± 0.007

CCCCOC(C)=O [butyl ethanoate]
Settings | surface tension liquid-gas [mN/m]
[1], Ring tensiometer | 22.12 ± 0.06

[1]
Settings | mass density [kg/m3] | viscosity [mPa·s]
– | 849.75 ± 0.4 | 0.502 ± 0.004

O [water]
Settings | surface tension liquid-gas [mN/m]
[1], ring detachment method | 68.38 ± 0.04

CCCCOC(C)=O [butyl ethanoate] + O
[2]
Settings | interfacial tension [mN/m] | mass density [kg/m3] | surface tension liquid-gas [mN/m] | viscosity [mPa·s]
Liquid mixture 1, Ring tensiometer, x2 = 0.9998 | 14.2 ± 0.3 | – | – | –
Liquid mixture 2, Ring tensiometer, x2 = 0.1305 | – | – | 21.74 ± 0.43 | –
Liquid, x2 = 0.02 | – | 850.18 ± 0.4 | – | 0.503 ± 0.004
Liquid, x2 = 0.04 | – | 850.62 ± 0.39 | – | 0.504 ± 0.004
Liquid, x2 = 0.06 | – | 851.07 ± 0.39 | – | 0.506 ± 0.004
Liquid, x2 = 0.08 | – | 851.57 ± 0.39 | – | 0.507 ± 0.004

[2], Liquid, Ring tensiometer
Settings | surface tension liquid-gas [mN/m]
x2 = 0.02 | 22.14 ± 0.34
x2 = 0.04 | 22.17 ± 0.34
x2 = 0.06 | 22.2 ± 0.34
x2 = 0.08 | 22.25 ± 0.34

CCCCOC(C)=O [butyl ethanoate] + CCCO
[2], Liquid
Settings | mass density [kg/m3] | viscosity [mPa·s]
x1 = 0.1 | 790.07 ± 0.48 | 0.879 ± 0.006
x1 = 0.2 | 799.51 ± 0.47 | 0.747 ± 0.005
x1 = 0.3 | 807.87 ± 0.46 | 0.662 ± 0.005
x1 = 0.4 | 815.42 ± 0.45 | 0.604 ± 0.004
x1 = 0.5 | 822.21 ± 0.44 | 0.566 ± 0.004
x1 = 0.6 | 828.46 ± 0.43 | 0.538 ± 0.004
x1 = 0.7 | 834.3 ± 0.42 | 0.521 ± 0.004
x1 = 0.8 | 839.71 ± 0.41 | 0.508 ± 0.004
x1 = 0.9 | 844.84 ± 0.4 | 0.502 ± 0.004

[2], Liquid, Ring tensiometer
Settings | surface tension liquid-gas [mN/m]
x1 = 0.1 | 21.56 ± 0.33
x1 = 0.2 | 21.72 ± 0.33
x1 = 0.3 | 21.84 ± 0.34
x1 = 0.4 | 21.97 ± 0.34
x1 = 0.5 | 22.05 ± 0.34
x1 = 0.6 | 22.12 ± 0.34
x1 = 0.7 | 22.17 ± 0.34
x1 = 0.8 | 22.2 ± 0.34
x1 = 0.9 | 22.18 ± 0.34

CCCO [propan-1-ol] + O
[2], Liquid
Settings | mass density [kg/m3] | viscosity [mPa·s]
x2 = 0.05 | 782.94 ± 0.49 | 1.121 ± 0.007
x2 = 0.1 | 786.61 ± 0.49 | 1.127 ± 0.007
x2 = 0.2 | 794.62 ± 0.47 | 1.15 ± 0.007
x2 = 0.3 | 803.64 ± 0.45 | 1.18 ± 0.008
x2 = 0.4 | 814.4 ± 0.43 | 1.219 ± 0.008
x2 = 0.5 | 827.68 ± 0.41 | 1.26 ± 0.008
x2 = 0.6 | 844.41 ± 0.38 | 1.291 ± 0.008
x2 = 0.7 | 865.87 ± 0.35 | 1.305 ± 0.008
x2 = 0.8 | 894.61 ± 0.31 | 1.256 ± 0.008
x2 = 0.9 | 935.04 ± 0.25 | 1.036 ± 0.006
x2 = 0.95 | 959.71 ± 0.22 | 0.827 ± 0.005

[2], Liquid, Ring tensiometer
Settings | surface tension liquid-gas [mN/m]
x2 = 0.05 | 21.55 ± 0.33
x2 = 0.1 | 21.68 ± 0.33
x2 = 0.2 | 21.93 ± 0.34
x2 = 0.3 | 22.29 ± 0.34
x2 = 0.4 | 22.68 ± 0.34
x2 = 0.5 | 23.06 ± 0.35
x2 = 0.6 | 23.42 ± 0.35
x2 = 0.7 | 23.65 ± 0.35
x2 = 0.8 | 24.12 ± 0.36
x2 = 0.9 | 25.27 ± 0.37
x2 = 0.92 | 26.37 ± 0.39
x2 = 0.95 | 29.58 ± 0.43
x2 = 0.98 | 44.44 ± 0.6
